Laboratory results from ChEMBL document CHEMBL1134404, “Bisubstrate analogue inhibitors of 6-hydroxymethyl-7,8-dihydropterin pyrophosphokinase: synthesis and biochemical and crystallographic studies” (J Med Chem, 2001).

Assay: Compound was tested for the binding affinity towards HPPK Receptor without Mg 2
Set-up: species or system Escherichia coli

Nc1nc2ncc(COP(=O)(O)OP(=O)(O)OP(=O)(O)OP(=O)(O)OC[C@H]3O[C@@H](n4cnc5c(N)ncnc54)[C@H](O)[C@@H]3O)nc2c(=O)[nH]1
Kd: 1930 nM
